18 compounds from US10172868B2, “Substituted quinazolines for inhibiting kinase activity” (NeuPharma, Inc., priority 2013, dated 2019) can be followed below.

The target of experiment [1] is EGFR (ErbB1) (Homo sapiens (Human), UniProt P00533). The experiment is described as follows: Z'-LYTE kinase inhibition assay, EGFR. The format is biochemical. Conditions: read-out: % inhibition against EGFR (Compound at 0.041 μM). The protocol: Inhibitory activities of compounds against BTK, EGFR and EGFR mutants (EGFR L858R, EGFR T790M, EGFR L858R/T790M), FGFR1, FGFR2, JAK2, JAK3 and KDR were measured by Invitrogen using Z'-LYTE® Method as briefly described in the following. Test Compounds are screened in 1% DMSO (final) in the well. For 10 point titrations, 3-fold serial dilutions are conducted from the starting concentration. All ATP Solutions are diluted to a 4× working concentration in Kinase Buffer (50 mM HEPES pH 7.5, 0.01% BRIJ-35, 10 mM MgCl2, 1 mM EGTA). Peptide/Kinase Mixtures are diluted to a 2× working concentration in the appropriate Kinase Buffers as described below. (i) Peptide/Kinase Mixtures for Measurement of EGFR (ErbB1): The 2×EGFR (ErbB1)/[…] mixture is prepared in 50 mM HEPES pH 7.5, 0.01% BRIJ-35, 10 mM MgCl2. 4 mM MnCl2, 1 mM EGTA, 2 mM DTT. The final 10 μL Kinase Reaction consists of 1.1-5.25 ng EGFR (ErbB1) and 2 μM […] in 50 mM HEPES pH 7.5, 0.01% BRIJ-35, 10 mM MgCl2, 2 mM MnCl2. 1 mM EGTA, 1 mM DTT. After the 1 hour Kinase Reaction incubation, 5 μL of a 1:64 dilution of Development Reagent B is added. Reaction starts by 30-second shaking of mixture consisting of 2.5 μL 4× test compound, […] 2× kinase reaction mixture and 2.5 μL 4×ATP Solution on Bar-coded Corning, low volume NBS, black 384-well plate (Corning Cat. #3676). Then the mixture is incubated for 60-minute at room temperature for the kinase reaction, followed by addition of 5 μL of a 1:1024 dilution of development reagent A and 30-second plate shake. The mixture is then incubated for another 60-minute at room temperature for development reaction. Finally fluorescence is read by plate reader. To determine IC50 of a compound against EGFR, EGFR mutant and other kinases, a series of concentrations of the compound were tested for the inhibition.

The target of experiment [2] is EGFR (ErbB1) T790M L858R (Homo sapiens (Human), UniProt P00533, L858R/T790M). The experiment is described as follows: Z'-LYTE kinase inhibition assay, EGFR L858R/T790M. The format is biochemical. The note with it: for inhibition at 0.0137 µM: read-out: % inhibition against EGFR L858R/T790M (Compound at 0.0137 μM); for IC50: read-out: IC50 against EGFR L858R/T790M. The protocol: Inhibitory activities of compounds against BTK, EGFR and EGFR mutants (EGFR L858R, EGFR T790M, EGFR L858R/T790M), FGFR1, FGFR2, JAK2, JAK3 and KDR were measured by Invitrogen using Z'-LYTE® Method as briefly described in the following. Test Compounds are screened in 1% DMSO (final) in the well. For 10 point titrations, 3-fold serial dilutions are conducted from the starting concentration. All ATP Solutions are diluted to a 4× working concentration in Kinase Buffer (50 mM HEPES pH 7.5, 0.01% BRIJ-35, 10 mM MgCl2, 1 mM EGTA). Peptide/Kinase Mixtures are diluted to a 2× working concentration in the appropriate Kinase Buffers as described below. (iv) Peptide/Kinase Mixtures for Measurement of EGFR (ErbB1) T790M L858R: The 2×EGFR (ErbB1) […] mixture is prepared in 50 mM HEPES pH 6.5, 0.01% BRIJ-35, 10 mM MgCl2, 1 mM EGTA, 0.02% NaN3. […] After the 1 hour Kinase Reaction incubation, 5 μL of a 1:64 dilution of Development Reagent B is added. Reaction starts by 30-second shaking of mixture consisting of 2.5 μL 4× test compound, […] 2× kinase reaction mixture and 2.5 μL 4×ATP Solution on Bar-coded Corning, low volume NBS, black 384-well plate (Corning Cat. #3676). Then the mixture is incubated for 60-minute at room temperature for the kinase reaction, followed by addition of 5 μL of a 1:1024 dilution of development reagent A and 30-second plate shake. The mixture is then incubated for another 60-minute at room temperature for development reaction. Finally fluorescence is read by plate reader. To determine IC50 of a compound against EGFR, EGFR mutant and other kinases, a series of concentrations of the compound were tested for the inhibition.

Experiment [3] concerns H1975 cells. The experiment is described as follows: Inhibition of cancer cell growth, MTT assay, H1975. The note with it: Homo sapiens, NCI-H1975, 72 h, read-out: IC50 in H1975 cells.

A value given as a limit tells only on which side of the number the result lay.

Sequence of EGFR (ErbB1) (P00533 25-1210): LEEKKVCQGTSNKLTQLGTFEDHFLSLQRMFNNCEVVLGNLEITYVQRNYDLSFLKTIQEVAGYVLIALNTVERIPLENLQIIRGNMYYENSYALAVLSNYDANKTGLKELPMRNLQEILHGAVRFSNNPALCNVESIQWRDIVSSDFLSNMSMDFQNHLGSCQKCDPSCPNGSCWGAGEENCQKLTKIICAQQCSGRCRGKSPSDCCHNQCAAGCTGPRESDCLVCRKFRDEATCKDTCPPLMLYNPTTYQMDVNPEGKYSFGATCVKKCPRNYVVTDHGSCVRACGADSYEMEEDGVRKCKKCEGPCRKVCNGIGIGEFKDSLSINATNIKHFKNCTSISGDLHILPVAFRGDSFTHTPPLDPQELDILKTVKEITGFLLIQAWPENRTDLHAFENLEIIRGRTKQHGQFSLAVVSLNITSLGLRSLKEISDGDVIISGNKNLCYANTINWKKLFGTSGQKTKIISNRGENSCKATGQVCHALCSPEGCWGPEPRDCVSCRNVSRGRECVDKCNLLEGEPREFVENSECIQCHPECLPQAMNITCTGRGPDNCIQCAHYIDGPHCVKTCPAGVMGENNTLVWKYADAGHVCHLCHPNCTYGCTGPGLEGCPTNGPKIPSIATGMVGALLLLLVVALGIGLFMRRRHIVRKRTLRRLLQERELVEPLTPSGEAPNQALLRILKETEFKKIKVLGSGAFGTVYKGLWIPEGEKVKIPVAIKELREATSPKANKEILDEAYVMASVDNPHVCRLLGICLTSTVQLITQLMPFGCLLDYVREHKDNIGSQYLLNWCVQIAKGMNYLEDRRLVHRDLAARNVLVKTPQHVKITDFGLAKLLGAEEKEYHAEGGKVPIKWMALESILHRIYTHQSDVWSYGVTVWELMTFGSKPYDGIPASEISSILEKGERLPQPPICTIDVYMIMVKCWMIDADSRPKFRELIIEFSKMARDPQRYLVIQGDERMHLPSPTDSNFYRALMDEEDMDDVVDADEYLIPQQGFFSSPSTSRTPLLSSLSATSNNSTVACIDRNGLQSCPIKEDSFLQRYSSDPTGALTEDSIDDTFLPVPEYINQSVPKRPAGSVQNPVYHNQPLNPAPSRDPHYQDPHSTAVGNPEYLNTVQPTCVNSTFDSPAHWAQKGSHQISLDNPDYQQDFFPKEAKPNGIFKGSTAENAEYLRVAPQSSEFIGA
Sequence of EGFR (ErbB1) T790M L858R (P00533 25-1210 T790M/L858R): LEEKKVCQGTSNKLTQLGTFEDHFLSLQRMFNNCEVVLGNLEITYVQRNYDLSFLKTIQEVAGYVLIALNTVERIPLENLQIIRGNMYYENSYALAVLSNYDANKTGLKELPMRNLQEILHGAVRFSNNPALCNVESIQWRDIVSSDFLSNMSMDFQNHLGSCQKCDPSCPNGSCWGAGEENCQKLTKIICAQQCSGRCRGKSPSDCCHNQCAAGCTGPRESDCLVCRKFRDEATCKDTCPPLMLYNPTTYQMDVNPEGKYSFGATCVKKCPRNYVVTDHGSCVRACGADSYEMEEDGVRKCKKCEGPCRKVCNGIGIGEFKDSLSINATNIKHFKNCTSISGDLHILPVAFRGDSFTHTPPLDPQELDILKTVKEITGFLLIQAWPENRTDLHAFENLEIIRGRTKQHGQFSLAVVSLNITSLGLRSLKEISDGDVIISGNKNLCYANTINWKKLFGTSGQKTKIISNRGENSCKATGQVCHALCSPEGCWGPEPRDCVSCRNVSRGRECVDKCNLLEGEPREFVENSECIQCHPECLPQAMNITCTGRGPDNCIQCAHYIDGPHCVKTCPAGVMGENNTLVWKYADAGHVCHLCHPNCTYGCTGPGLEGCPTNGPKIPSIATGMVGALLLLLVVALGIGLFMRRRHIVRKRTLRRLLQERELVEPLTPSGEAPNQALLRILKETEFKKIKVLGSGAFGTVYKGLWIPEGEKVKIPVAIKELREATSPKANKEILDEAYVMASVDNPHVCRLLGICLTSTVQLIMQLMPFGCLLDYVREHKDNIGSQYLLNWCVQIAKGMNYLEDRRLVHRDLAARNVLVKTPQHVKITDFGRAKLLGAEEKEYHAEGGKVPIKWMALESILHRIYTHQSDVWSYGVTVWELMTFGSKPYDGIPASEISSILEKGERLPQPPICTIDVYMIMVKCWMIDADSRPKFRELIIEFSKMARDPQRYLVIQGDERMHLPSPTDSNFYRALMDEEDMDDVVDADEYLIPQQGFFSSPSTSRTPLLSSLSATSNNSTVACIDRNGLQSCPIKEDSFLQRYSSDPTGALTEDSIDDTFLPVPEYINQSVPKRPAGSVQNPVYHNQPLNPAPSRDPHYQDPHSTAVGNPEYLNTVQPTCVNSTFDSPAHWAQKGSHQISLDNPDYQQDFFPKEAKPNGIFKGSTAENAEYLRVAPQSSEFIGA

`C=CC(=O)Nc1cccc(-c2cccc3cnc(Nc4ccc(N5CCN(C)C(CO)C5)cc4)nc23)c1` (centres unmarked) [Example C077, N-(3-(2-((4-(3-(hydroxymethyl)-4-methylpiperazin-1-yl)phenyl)amino)quinazolin-8-yl)phenyl)acrylamide]: in experiment [1], the inhibition at 0.041 µM was less than 50%. In experiment [2], the inhibition at 0.0137 µM is more than 50%. Further, the IC50 in experiment [2] and in experiment [3] was less than 100 nM throughout.

Regarding `C=CC(=O)Nc1cccc(-c2cccc3cnc(Nc4cnc(N5CCN(C)CC5)c(Cl)c4)nc23)c1` [Example C081, N-(3-(2-((5-chloro-6-(4-methylpiperazin-1-yl)pyridin-3-yl)amino)quinazolin-8-yl)phenyl)acrylamide], in experiment [1], the inhibition at 0.041 µM is less than 50%. Besides, in experiment [2], the inhibition at 0.0137 µM was more than 50% and the IC50 was less than 100 nM. Moreover, the IC50 in experiment [3] is 100 to 500 nM.

For `C=CC(=O)Nc1cccc(-c2cccc3cnc(Nc4ccc(N5CCN(C(=O)CO)CC5)cc4)nc23)c1` [Example C082, N-(3-(2-((4-(4-(2-hydroxyacetyl)piperazin-1-yl)phenyl)amino)quinazolin-8-yl)phenyl)acrylamide], in experiment [1], the inhibition at 0.041 µM was less than 50%. The inhibition at 0.0137 µM in experiment [2] is more than 50%. In addition, in experiment [3], the IC50 lay within 100 to 500 nM.

For the compound `C=CC(=O)Nc1cccc(-c2cccc3cnc(Nc4ccc(N5CCN(C(=O)NC)CC5)cc4)nc23)c1` [Example C083, 4-(4-((8-(3-acrylamidophenyl)quinazolin-2-yl)amino)phenyl)-N-methylpiperazine-1-carboxamide], the inhibition at 0.041 µM in experiment [1] is less than 50%. Besides, the inhibition at 0.0137 µM in experiment [2] is more than 50%. Also, the IC50 in experiment [3] lay within 100 to 500 nM.

`C=CC(=O)Nc1cccc(-c2cccc3cnc(Nc4ccc(N5CCN(C(=O)CC)CC5)cc4)nc23)c1` [Example C084, N-(3-(2-((4-(4-propionylpiperazin-1-yl)phenyl)amino)quinazolin-8-yl)phenyl)acrylamide]: the inhibition at 0.041 µM in experiment [1] is less than 50%. The inhibition at 0.0137 µM in experiment [2] is more than 50%. The IC50 in experiment [3] fell in the range of 100 to 500 nM.

With `C=CC(=O)Nc1cccc(-c2cccc3cnc(Nc4cnc(N5CCN(C)CC5)c(C#N)c4)nc23)c1` [Example C086, N-(3-(2-((5-cyano-6-(4-methylpiperazin-1-yl)pyridin-3-yl)amino)quinazolin-8-yl)phenyl)acrylamide], in experiment [1], the inhibition at 0.041 µM is less than 50%. Also, the inhibition at 0.0137 µM in experiment [2] is more than 50%. Besides, the IC50 in experiment [3] lay in the range of 100 to 500 nM.

On to `C=CC(=O)Nc1cccc(-c2cccc3cnc(Nc4ccc(N5CCN(C)C(C(=O)OC)C5)cc4)nc23)c1` (centres unmarked) [Example C089, methyl 4-(4-((8-(3-acrylamidophenyl)quinazolin-2-yl)amino)phenyl)-1-methylpiperazine-2-carboxylate], for which, in experiment [1], the inhibition at 0.041 µM was less than 50%. Besides, the inhibition at 0.0137 µM in experiment [2] was less than 50%. Besides, the IC50 in experiment [3] lay within 100 to 500 nM.

For `C=CC(=O)Nc1cccc(-c2cccc3cnc(Nc4ccc(N5CCN(C)C(C(=O)O)C5)cc4)nc23)c1` (centres unmarked) [Example C090, 4-(4-((8-(3-acrylamidophenyl)quinazolin-2-yl)amino)phenyl)-1-methylpiperazine-2-carboxylic acid], in experiment [1], the inhibition at 0.041 µM was less than 50%. The inhibition at 0.0137 µM in experiment [2] was more than 50%. In experiment [3], the IC50 was in the range of 100 to 500 nM.

In the case of `C=CC(=O)Nc1cccc(-c2cccc3cnc(Nc4ccc(N5CCN(S(C)(=O)=O)CC5)cc4)nc23)c1` [Example C092, N-(3-(2-((4-(4-(methylsulfonyl)piperazin-1-yl)phenyl)amino)quinazolin-8-yl)phenyl)acrylamide], the inhibition at 0.041 µM in experiment [1] was less than 50%. Besides, the inhibition at 0.0137 µM in experiment [2] was less than 50%. Further, in experiment [3], the IC50 was 100 to 500 nM.

For the compound `C=CC(=O)Nc1cccc(-c2cccc3cnc(Nc4ccc(N5CCN(C)C(C(N)=O)C5)cc4)nc23)c1` (centres unmarked) [Example C093, 4-(4-((8-(3-acrylamidophenyl)quinazolin-2-yl)amino)phenyl)-1-methylpiperazine-2-carboxamide], the inhibition at 0.041 µM in experiment [1] was less than 50%. Moreover, the inhibition at 0.0137 µM in experiment [2] is more than 50%. Also, in experiment [3], the IC50 is 100 to 500 nM.

`C=CC(=O)Nc1cccc(-c2cccc3cnc(Nc4ccc(-n5ccnc5)cc4)nc23)c1` [Example C094, N-(3-(2-((4-(1H-imidazol-1-yl)phenyl)amino)quinazolin-8-yl)phenyl)acrylamide]: in experiment [1], the inhibition at 0.041 µM is less than 50%. Also, in experiment [2], the inhibition at 0.0137 µM is less than 50%. In addition, the IC50 in experiment [3] was 100 to 500 nM.

For the compound `C=CC(=O)Nc1cccc(-c2cccc3cnc(Nc4ccc(N5CCOCC5=O)cc4)nc23)c1` [Example C095, N-(3-(2-((4-(3-oxomorpholino)phenyl)amino)quinazolin-8-yl)phenyl)acrylamide], in experiment [1], the inhibition at 0.041 µM was less than 50%. Besides, in experiment [2], the inhibition at 0.0137 µM was less than 50%. In addition, the IC50 in experiment [3] was 100 to 500 nM.

Take `C=CC(=O)Nc1cccc(-c2cccc3cnc(Nc4ccc(N5CCCC5=O)cc4)nc23)c1` [Example C096, N-(3-(2-((4-(2-oxopyrrolidin-1-yl)phenyl)amino)quinazolin-8-yl)phenyl)acrylamide]: the inhibition at 0.041 µM in experiment [1] is less than 50%. Besides, in experiment [2], the inhibition at 0.0137 µM was less than 50%. The IC50 in experiment [3] is less than 100 nM.

`C=CC(=O)Nc1cccc(-c2cccc3cnc(Nc4ccc(N5CCNC5=O)cc4)nc23)c1` [Example C097, N-(3-(2-((4-(2-oxoimidazolidin-1-yl)phenyl)amino)quinazolin-8-yl)phenyl)acrylamide]: the inhibition at 0.041 µM in experiment [1] was less than 50%. Besides, the inhibition at 0.0137 µM in experiment [2] was less than 50%. The IC50 in experiment [3] is 100 to 500 nM.

With `C=CC(=O)Nc1cccc(-c2cccc3cnc(Nc4ccc(N5CCC(O)C5)cc4)nc23)c1` (centres unmarked) [Example C098, N-(3-(2-((4-(3-hydroxypyrrolidin-1-yl)phenyl)amino)quinazolin-8-yl)phenyl)acrylamide], the inhibition at 0.041 µM in experiment [1] is less than 50%. In experiment [2], the inhibition at 0.0137 µM was less than 50%. Besides, the IC50 in experiment [3] was less than 100 nM.

Regarding `C=CC(=O)Nc1ccc(C#N)c(-c2cccc3cnc(Nc4ccc(N5CCN(C)CC5)cc4)nc23)c1` [Example C100, N-(4-cyano-3-(2-((4-(4-methylpiperazin-1-yl)phenyl)amino)quinazolin-8-yl)phenyl)acrylamide], in experiment [1], the inhibition at 0.041 µM is less than 50%. Further, the inhibition at 0.0137 µM in experiment [2] was less than 50%. Also, the IC50 in experiment [3] was more than 500 nM.

As to `C=CC(=O)Nc1cccc(-c2cccc3cnc(Nc4ccc(N5CCN(C)CC5)cc4)nc23)c1C(=O)OC` [Example C101, methyl 2-acrylamido-6-(2-((4-(4-methylpiperazin-1-yl)phenyl)amino)quinazolin-8-yl)benzoate], the inhibition at 0.041 µM in experiment [1] was less than 50%. Also, the inhibition at 0.0137 µM in experiment [2] was more than 50%. In addition, in experiment [3], the IC50 is less than 100 nM.

In the case of `C=CC(=O)Nc1cccc(-c2cccc3cnc(Nc4ccc(N5CCCOCC5)cc4)nc23)c1` [Example C102, N-(3-(2-((4-(1,4-oxazepan-4-yl)phenyl)amino)quinazolin-8-yl)phenyl)acrylamide], the inhibition at 0.041 µM in experiment [1] was less than 50%. For the same compound, the inhibition at 0.0137 µM in experiment [2] was less than 50%. For the same compound, in experiment [3], the IC50 was less than 100 nM.
